Activity calls are given as the source filed them.

Test [1] can be described thus: Luminescence Cell-Based Dose Retest to Confirm Inhibitors of Cancer Stem Cells. [Related pubchem assays (depositor defined):AID2717, AID2721]. Type of test: functional. As to conditions: Homo sapiens.
Test [2] has as its system Vero. The test can be described thus: West Nile virus CPE inhibition, SAR follow-up, cell-based, synthesized analogs (AID 2238). Type of test: functional. As to conditions: Chlorocebus sabaeus.
Test [3] relates to Vero. In words: West Nile virus antiviral activity, cell-based, CPE readout (AID 1621). As to conditions: Chlorocebus sabaeus. The test is classed as functional.
Test [4] deals with Vero. The test can be described thus: Vero E6 cell cytotoxicity, SAR follow-up, cytotoxicity control for West Nile virus antiviral project, synthesized analogs (AID 2244). The test is classed as functional. As to conditions: Chlorocebus sabaeus.
Test [5] addresses T1, Short transient receptor potential channel 4 (Mus musculus, UniProt Q9QUQ5).
T1 sequence (Q9QUQ5 whole entry): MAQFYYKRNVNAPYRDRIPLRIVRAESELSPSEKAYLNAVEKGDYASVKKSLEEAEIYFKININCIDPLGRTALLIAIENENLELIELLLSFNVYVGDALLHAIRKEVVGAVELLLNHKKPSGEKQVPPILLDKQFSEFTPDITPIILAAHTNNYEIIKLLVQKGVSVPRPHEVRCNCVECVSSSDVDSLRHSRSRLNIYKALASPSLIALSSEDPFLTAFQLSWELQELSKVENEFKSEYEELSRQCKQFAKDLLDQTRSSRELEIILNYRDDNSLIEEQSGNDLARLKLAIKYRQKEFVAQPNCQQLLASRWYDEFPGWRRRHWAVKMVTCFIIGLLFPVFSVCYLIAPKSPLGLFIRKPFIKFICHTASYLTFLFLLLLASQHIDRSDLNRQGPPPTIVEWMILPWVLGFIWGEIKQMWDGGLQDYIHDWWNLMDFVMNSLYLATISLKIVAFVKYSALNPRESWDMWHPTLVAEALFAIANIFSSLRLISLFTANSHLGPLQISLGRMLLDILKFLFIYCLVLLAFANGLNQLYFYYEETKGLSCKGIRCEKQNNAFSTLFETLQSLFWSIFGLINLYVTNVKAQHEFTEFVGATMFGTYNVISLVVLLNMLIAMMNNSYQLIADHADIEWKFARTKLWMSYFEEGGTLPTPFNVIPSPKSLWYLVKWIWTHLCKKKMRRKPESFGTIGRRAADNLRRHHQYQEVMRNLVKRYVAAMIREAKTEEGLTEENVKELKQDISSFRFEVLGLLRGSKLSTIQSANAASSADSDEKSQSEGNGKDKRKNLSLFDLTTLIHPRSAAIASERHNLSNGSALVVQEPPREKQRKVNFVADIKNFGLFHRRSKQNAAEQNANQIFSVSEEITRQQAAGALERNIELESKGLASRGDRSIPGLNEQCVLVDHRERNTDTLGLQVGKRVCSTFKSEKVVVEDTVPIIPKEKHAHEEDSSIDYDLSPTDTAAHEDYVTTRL
The test can be described thus: TRPC4 positive allosteric modulators, dose response, cell-based, HEK293 TRPC4/mu-opioid, Fluo-4 calcium, EC20 DAMGO (AID 434941).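 Further: HEK293 cells coexpressing TRPC4 and mu opioid receptor stimulated by EC20 DAMGO.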 Type of test: functional.

Test [6] deals with Hexokinase (Trypanosoma brucei, UniProt Q38C41). The test can be described thus: Confirmation assay for inhibitors of Trypanosoma brucei hexokinase 1-Analogue-first series. [Related pubchem assays (depositor defined):AID1430, AID1632, AID2516, AID2560, AID2579, AID2600, AID449725, AID492951]. Type of test: functional.
Test [7] deals with Hexokinase-1 (Homo sapiens, UniProt P19367). In words: hexokinase 1 activators, dose response, selectivity assay for HKDC1 activator project, biochemical (AID 504762). The test is classed as functional.
Chain of Hexokinase-1 (P19367 whole entry): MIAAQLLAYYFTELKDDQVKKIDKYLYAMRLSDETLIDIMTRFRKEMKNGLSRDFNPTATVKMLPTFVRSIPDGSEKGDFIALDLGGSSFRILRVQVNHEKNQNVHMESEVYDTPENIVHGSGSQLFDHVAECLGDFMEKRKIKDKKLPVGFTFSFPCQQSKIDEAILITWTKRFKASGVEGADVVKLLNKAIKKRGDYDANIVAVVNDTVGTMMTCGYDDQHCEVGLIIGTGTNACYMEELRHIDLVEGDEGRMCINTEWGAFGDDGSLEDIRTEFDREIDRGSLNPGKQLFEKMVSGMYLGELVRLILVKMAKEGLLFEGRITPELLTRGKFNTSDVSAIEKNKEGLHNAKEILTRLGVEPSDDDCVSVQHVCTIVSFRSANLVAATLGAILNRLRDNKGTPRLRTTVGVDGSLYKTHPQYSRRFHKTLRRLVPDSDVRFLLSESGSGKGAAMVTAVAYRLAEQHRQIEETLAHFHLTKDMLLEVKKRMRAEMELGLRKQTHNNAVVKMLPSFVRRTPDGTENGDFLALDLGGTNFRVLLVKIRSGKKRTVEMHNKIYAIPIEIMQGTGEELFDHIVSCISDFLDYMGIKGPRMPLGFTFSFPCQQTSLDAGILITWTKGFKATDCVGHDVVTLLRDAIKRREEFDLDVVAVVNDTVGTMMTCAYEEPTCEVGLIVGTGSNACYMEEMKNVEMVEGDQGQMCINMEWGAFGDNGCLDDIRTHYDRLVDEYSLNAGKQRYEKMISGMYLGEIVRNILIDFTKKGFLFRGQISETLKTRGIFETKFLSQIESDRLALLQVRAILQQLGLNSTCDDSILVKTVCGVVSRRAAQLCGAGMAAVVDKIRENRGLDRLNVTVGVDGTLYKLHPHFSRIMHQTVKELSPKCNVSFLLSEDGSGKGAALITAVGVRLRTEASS
The target in test [8] is T2, Hexokinase HKDC1 (Homo sapiens, UniProt Q2TB90).
T2 sequence (Q2TB90 whole entry): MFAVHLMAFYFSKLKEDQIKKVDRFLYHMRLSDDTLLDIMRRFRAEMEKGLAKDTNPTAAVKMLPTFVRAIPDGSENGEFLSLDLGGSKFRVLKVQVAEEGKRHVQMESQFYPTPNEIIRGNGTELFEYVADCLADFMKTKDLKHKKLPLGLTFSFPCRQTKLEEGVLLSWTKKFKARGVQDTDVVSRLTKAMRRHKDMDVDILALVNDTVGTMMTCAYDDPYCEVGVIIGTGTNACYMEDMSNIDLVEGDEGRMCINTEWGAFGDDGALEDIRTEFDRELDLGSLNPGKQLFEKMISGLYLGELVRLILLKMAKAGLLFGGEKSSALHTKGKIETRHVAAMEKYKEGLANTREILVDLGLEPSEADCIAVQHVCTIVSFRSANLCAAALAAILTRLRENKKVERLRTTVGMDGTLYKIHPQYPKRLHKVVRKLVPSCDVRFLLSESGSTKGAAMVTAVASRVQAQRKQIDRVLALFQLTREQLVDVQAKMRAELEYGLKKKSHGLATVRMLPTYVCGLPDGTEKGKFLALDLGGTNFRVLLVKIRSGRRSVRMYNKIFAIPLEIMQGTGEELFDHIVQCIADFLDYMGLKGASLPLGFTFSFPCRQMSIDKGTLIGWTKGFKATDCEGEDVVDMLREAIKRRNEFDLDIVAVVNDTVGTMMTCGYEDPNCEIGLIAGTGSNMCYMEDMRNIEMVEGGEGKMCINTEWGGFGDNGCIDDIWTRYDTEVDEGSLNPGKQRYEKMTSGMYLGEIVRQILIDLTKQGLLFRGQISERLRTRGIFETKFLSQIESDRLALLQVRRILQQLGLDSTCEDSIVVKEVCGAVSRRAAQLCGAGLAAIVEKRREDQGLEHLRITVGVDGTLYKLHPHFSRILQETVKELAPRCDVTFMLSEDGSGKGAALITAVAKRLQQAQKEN
In words: HKDC1 hexokinase inhibitors, dose response, biochemical, W721R variant (AID 504729). The test is classed as functional.

Test [9] addresses Envelope glycoprotein gp160 (Human immunodeficiency virus 1, UniProt Q6QLK5). In words: inhibitors of HIV fusion peptide binding, primary screen, biochemical, uHTS, fluorescence dequenching (AID 1986).
The test system of test [10] is Streptococcus sp. 'group A'. The test can be described thus: growth inhibition of control SK(-) GAS strain, dose response, counter-screen for streptokinase expression inhibitor project, luminescence, kanamycin, BacTiterGlo, confirmation (AID 1900). Type of test: functional, organism-based.
The target in test [11] is T3, Fatty acid synthase (Homo sapiens, UniProt P49327). In words: FAS thioesterase domain inhibitors, dose response, biochemical, kinetic fluorescence intensity (AID 624326).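 Further: rate of fluorescence rise from hydrolysis of a fluorogenic O-methyl fluorescein ester substrate.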 Type of test: functional.
T3 sequence (P49327 whole entry, the tested form may be a part): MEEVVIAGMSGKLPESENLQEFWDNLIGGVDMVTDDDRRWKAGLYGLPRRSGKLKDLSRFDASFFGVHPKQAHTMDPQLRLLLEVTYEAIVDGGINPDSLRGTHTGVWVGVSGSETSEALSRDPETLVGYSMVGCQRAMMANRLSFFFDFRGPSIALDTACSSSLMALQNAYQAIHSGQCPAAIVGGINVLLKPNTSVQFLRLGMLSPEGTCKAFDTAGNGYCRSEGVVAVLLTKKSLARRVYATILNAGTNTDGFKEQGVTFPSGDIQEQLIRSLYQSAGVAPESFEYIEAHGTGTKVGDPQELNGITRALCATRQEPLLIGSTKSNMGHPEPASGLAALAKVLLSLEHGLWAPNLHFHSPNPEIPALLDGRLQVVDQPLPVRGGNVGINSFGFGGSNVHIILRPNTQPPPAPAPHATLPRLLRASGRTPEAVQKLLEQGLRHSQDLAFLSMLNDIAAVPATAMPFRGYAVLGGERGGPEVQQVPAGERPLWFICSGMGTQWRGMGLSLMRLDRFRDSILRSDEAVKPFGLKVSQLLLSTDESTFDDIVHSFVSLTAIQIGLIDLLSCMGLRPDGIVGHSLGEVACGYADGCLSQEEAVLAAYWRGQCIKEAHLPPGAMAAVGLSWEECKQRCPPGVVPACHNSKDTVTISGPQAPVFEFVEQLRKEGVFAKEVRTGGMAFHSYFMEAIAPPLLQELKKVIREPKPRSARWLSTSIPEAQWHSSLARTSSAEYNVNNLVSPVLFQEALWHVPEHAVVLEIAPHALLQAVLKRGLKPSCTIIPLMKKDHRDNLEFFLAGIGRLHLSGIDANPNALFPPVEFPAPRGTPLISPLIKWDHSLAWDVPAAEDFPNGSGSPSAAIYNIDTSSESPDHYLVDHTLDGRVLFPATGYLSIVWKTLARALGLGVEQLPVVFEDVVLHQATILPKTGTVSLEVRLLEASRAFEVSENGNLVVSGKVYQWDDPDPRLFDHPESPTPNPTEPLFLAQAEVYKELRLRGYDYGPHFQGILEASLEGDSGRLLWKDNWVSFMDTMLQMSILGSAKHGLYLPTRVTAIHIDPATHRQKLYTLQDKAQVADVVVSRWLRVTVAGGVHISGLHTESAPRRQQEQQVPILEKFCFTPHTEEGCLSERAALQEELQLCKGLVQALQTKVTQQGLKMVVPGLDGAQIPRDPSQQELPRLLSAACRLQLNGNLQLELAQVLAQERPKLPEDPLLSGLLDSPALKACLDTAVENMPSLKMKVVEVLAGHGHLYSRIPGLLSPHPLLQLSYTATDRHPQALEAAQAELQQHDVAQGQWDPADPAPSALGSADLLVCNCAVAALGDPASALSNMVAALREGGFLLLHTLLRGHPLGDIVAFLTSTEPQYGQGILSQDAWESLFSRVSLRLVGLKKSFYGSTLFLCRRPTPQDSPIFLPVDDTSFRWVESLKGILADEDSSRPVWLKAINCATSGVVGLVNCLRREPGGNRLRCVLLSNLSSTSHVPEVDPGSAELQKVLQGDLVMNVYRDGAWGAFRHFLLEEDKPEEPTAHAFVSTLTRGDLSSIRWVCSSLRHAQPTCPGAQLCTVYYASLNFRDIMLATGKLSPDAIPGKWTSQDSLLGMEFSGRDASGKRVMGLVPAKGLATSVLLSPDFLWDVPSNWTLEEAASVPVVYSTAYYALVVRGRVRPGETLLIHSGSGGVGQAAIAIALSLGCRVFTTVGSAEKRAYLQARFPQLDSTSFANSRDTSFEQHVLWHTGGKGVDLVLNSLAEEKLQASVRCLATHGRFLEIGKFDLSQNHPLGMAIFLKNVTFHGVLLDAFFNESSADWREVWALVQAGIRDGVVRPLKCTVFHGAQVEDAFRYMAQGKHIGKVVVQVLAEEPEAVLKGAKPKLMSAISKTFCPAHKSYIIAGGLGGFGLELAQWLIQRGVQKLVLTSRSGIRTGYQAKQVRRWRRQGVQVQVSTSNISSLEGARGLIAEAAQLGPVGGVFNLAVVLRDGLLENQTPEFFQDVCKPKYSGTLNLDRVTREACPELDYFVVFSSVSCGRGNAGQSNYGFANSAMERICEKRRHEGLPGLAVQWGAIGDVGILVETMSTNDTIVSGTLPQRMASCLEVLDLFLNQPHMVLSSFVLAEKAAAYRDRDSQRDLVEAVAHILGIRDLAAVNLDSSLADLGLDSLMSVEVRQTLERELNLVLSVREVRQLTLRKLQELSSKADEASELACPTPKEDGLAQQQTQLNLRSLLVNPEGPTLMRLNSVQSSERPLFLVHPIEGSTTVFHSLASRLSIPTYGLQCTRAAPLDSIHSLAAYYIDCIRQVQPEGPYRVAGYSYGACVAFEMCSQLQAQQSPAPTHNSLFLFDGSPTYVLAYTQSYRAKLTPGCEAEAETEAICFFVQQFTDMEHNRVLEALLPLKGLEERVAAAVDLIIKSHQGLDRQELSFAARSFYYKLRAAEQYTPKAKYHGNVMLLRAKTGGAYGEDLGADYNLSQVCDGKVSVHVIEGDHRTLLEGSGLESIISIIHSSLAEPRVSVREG
The target in test [12] is T4, Streptokinase A (Streptococcus pyogenes serotype M1, UniProt P10520).
T4 sequence (P10520 whole entry): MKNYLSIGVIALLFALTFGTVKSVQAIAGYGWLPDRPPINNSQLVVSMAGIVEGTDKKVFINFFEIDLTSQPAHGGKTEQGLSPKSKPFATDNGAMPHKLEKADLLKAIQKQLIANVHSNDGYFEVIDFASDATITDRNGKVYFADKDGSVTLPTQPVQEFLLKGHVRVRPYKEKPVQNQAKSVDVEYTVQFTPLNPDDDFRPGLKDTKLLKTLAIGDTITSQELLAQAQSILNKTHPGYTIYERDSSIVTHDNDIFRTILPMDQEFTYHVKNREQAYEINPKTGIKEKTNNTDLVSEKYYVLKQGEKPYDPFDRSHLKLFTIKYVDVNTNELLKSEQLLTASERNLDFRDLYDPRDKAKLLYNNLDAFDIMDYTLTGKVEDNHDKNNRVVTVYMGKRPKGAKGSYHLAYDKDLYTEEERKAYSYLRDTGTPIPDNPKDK
In words: S. pyogenes streptokinase expression inhibitors, potency, dose response, plasminogen activation absorbance, OD405 (AID 1914).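 Further: secreted streptokinase activity via plasminogen activation per viability signal from cell pellet.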 Type of test: functional, Streptococcus pyogenes M1 GAS.

Test [13] addresses T5, Calpain-2 catalytic subunit (Sus scrofa, UniProt P43367).
T5 sequence (P43367 whole entry): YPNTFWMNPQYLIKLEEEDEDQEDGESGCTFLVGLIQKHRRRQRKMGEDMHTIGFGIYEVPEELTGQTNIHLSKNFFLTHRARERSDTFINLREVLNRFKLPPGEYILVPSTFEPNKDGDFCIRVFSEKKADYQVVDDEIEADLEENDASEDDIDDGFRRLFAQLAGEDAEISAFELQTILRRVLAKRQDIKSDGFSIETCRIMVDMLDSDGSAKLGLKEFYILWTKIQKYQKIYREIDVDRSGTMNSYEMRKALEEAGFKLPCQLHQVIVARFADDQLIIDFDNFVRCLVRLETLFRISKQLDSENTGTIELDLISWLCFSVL
In words: pig calpain II inhibitor potency, dose response, biochemical, fluorogenic peptide substrate (AID 1420). The test is classed as functional.

The target of test [14] is Bifunctional protein GlmU (Mycobacterium tuberculosis, UniProt P9WMN3). In words: Inhibitors of Mycobacterial Glucosamine-1-phosphate acetyl transferase (GlmU). Secondary screen. On the set-up: species or system Mycobacterium tuberculosis H37Rv.
Chain of Bifunctional protein GlmU (P9WMN3 whole entry, the tested form may be a part): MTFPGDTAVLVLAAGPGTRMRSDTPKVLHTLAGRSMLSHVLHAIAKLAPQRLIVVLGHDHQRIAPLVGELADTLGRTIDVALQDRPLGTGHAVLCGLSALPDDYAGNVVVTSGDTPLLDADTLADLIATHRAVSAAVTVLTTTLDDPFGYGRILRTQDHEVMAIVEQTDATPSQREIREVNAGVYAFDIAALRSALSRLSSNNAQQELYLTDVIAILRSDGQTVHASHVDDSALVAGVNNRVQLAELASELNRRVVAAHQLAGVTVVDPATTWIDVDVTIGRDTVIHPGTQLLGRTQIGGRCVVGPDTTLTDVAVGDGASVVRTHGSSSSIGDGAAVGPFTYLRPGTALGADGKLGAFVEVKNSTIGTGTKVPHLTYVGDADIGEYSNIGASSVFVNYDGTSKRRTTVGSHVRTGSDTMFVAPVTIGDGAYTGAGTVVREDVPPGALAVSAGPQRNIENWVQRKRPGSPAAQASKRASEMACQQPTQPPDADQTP
Test [15] has as its target T3, Fatty acid synthase. The test can be described thus: FAS thioesterase domain inhibitors, dose response, biochemical, endpoint fluorescence intensity, uHTS hits (AID 624327).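 Further: fluorescence from hydrolysis of an O-methyl fluorescein acyl ester substrate by the enzyme.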 The test is classed as functional.
Test [16] concerns the target T6, Aminopeptidase N (Plasmodium falciparum FcB1/Columbia, UniProt O96935).
T6 sequence (O96935 whole entry): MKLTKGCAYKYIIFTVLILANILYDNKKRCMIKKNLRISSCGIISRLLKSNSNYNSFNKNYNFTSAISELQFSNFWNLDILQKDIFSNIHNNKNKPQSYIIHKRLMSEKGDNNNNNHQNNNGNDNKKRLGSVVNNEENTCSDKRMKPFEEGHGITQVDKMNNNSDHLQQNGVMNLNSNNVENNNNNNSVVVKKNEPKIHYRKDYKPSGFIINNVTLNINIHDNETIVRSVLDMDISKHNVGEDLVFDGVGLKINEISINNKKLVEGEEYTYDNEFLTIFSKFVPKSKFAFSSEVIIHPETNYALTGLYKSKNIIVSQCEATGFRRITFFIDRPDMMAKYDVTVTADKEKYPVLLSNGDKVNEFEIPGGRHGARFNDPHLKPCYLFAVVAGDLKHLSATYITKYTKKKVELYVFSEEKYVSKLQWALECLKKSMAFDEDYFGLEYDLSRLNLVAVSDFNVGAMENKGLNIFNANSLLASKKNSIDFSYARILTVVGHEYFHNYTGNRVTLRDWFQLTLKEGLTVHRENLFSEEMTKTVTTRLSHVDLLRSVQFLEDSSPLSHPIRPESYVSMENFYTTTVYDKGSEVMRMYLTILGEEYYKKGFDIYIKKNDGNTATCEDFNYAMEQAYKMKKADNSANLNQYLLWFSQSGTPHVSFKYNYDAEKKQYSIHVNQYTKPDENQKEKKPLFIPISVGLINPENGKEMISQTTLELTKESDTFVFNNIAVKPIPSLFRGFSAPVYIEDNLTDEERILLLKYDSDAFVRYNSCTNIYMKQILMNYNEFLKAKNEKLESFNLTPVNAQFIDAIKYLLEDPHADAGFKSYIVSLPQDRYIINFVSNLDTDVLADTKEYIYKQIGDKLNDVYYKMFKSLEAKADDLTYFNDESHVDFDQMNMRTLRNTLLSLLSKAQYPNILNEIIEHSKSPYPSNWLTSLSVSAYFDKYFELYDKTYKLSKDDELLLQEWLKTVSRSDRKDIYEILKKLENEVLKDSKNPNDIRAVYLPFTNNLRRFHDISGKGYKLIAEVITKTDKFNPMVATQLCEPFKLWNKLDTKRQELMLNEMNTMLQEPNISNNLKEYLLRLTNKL
In words: P. falciparum M1AAP inhibitors, biochemical, fluorogenic H-Leu-NHMec substrate, 1536-well (AID 1445). Also on record: species or system Plasmodium falciparum 3D7, 3D7.

Test [17] concerns Streptococcus. In words: Group A Streptococcus viability loss, dose response, counter-screen for streptokinase expression inhibitor project, luminescence, BacTiterGlo (AID 1915).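 Further: potency for reduction of bacterial viability or growth.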 Type of test: functional, organism-based.
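Wherever AC50 is given: cells exposed to compound for roughly 70 hours or longer before luminescence read.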

Chain of Envelope glycoprotein gp160 (Q6QLK5 whole entry, the tested form may be a part): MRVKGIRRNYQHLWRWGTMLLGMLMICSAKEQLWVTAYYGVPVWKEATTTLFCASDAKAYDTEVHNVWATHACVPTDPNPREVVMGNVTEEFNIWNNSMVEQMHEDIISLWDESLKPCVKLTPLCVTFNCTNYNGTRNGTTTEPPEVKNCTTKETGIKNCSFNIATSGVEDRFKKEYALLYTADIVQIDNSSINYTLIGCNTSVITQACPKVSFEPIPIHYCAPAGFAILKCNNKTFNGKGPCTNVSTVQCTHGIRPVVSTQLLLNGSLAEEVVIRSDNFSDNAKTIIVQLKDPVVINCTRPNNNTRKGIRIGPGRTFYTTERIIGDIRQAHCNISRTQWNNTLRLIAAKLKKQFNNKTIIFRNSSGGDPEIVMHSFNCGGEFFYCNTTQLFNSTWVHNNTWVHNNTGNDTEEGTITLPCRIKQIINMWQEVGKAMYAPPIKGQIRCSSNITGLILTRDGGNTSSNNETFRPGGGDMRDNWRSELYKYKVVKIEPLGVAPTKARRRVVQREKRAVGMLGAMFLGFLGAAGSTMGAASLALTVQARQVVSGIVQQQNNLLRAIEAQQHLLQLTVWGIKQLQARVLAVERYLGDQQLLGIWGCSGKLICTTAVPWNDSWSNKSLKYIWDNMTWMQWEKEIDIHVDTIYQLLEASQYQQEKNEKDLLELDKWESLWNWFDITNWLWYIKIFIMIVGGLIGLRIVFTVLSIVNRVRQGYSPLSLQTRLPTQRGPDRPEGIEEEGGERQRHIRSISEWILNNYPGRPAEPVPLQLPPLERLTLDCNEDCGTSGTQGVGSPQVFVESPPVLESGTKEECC

Regarding `CCN(CC)CCCN=C(S)N1CCN(c2nc(-c3ccccc3)cs2)CC1`, the AC50 in test [1] is 3.77 µM (active). In addition, the IC50 was 17.3 µM (active) in test [2] and > 100 µM (active) in test [3]. For the same compound, the CC50 in test [4] was 15.3 µM (active).

In the case of `CN(C)CCOc1cc(Cl)cc(Cl)c1`, the EC50 in test [5] was 0.67 µM (active).

For `CC(C)c1ccc(C(=O)Nc2cc(Cl)ccc2C(=O)O)cc1`, the IC50 in [6] was 2.89 µM (active).

Turning to `O=C(CN(C(=O)CCC(=O)Nc1ccccn1)c1ccc2c(c1)OCO2)NCc1ccc(F)cc1`, the EC50 in [7] was > 80 µM (inactive). Also, the IC50 in test [8] is > 80 µM (inactive).

Consider `O=c1c(C(c2ccc([N+](=O)[O-])cc2)c2c(O)oc3ccccc3c2=O)c(O)oc2ccccc12`, for which the IC50 was 13.8 µM (active) in test [9]; 3.67 µM (active) in test [11]; 7.83 µM (active) in test [13]; 122 µM (active) in test [14]; 4.65 µM (active) in [15]; 34 µM (active) in test [16]. Also, the EC50 in test [10] is 8.09 µM (active); in [12], 13.4 µM (active); in test [17] it was 102 µM (active).
